Activity calls are given as the source filed them. No cut-off for these calls is given here.
What was measured:
Gerbillinae [1] = assay: Tested for the percent protection from CA1 damage of the hippocampus (gerbil ischemia-induced cell death) after 1 mg/kg intraperitoneal administration, 45 min pre and 5 min post ischemia event; type: functional
Mus musculus [2] = assay: Compound was tested at a dose of 0.5-1mg/Kg, ip; produced effects such as body rolling, ataxia and hyperlocomotion; type: functional, organism-based
Glutamate NMDA receptor = assay: Inhibition of [3H]-TCP binding to NMDA receptors on rat brain membranes.; type: cell membranes, Membrane
Rattus norvegicus = assay: Tested […] for the NMDA-induced cytotoxicity at a concentration of 100 uM in rat cortical cell cultures; type: functional
Gerbillinae [3] = assay: Tested for the percent reduction in CA1 damage of the hippocampus (gerbil ischemia-induced cell death) after 60 mg/kg intraperitoneal administration,45 min pre and 5 min post ischemia event; type: functional
Mus musculus [4] = assay: Compound was tested up to a dose of 80mg/Kg, ip; did not produce effects such as body rolling, ataxia and hyperlocomotion; type: functional, organism-based
Mus musculus [5] = assay: Tested in vivo for the antagonistic activity after 0.4 ug/mouse of NMDA intracerebral administration in mice; type: functional; settings: central
Mus musculus [6] = assay: Compound was tested at a dose of 20-40mg/Kg, ip; produced effects such as body rolling, ataxia and hyperlocomotion; type: functional, organism-based

C[C@]12N[C@H](Cc3ccccc31)c1ccccc12.Cl [DIZOCILPINE HYDROCHLORIDE]
Protection (Gerbillinae [1]): 42% | Activity (Mus musculus [2]): Active

c1ccc2c(c1)CNC21CCCc2sccc21 (centres undefined)
IC50 (Glutamate NMDA receptor): 0.6 µM

Oc1ccc2c(c1)C1(CCCc3ccccc31)NC2 (centres undefined)
IC50 (Glutamate NMDA receptor): 0.24 µM

CCCN1Cc2ccccc2C12CCCc1sccc12 (centres undefined)
IC50 (Glutamate NMDA receptor): 1.5 µM

c1ccc2c(c1)CCCCC21NCc2ccccc21 (centres undefined)
IC50 (Glutamate NMDA receptor): 1.7 µM

COc1ccc2c(c1)C1(CCCc3ccccc31)NC2 (centres undefined)
IC50 (Glutamate NMDA receptor): 4 µM

CN1Cc2ccccc2C12CCCc1sccc12.O=C(O)C(=O)O (centres undefined)
Protection (Rattus norvegicus): 68% | Reduction (Gerbillinae [3]): 84% | Activity (Mus musculus [4]): inactive | ED50 (Mus musculus [5]): 32 mg/kg | IC50 (Glutamate NMDA receptor): 0.49 µM

COc1ccc2c(c1)C1(CCCc3ccccc31)N(C)C2 (centres undefined)
IC50 (Glutamate NMDA receptor): 0.79 µM

Oc1cccc2c1CCC21NCc2ccccc21 (centres undefined)
IC50 (Glutamate NMDA receptor): 0.73 µM

c1ccc2c(c1)CCC21NCc2ccccc21 (centres undefined)
Activity (Mus musculus [6]): Active | IC50 (Glutamate NMDA receptor): 0.98 µM

CN1Cc2ccc(O)cc2C12CCCCc1ccccc12 (centres undefined)
IC50 (Glutamate NMDA receptor): 0.16 µM

CN1Cc2ccccc2C12CCCCc1ccccc12 (centres undefined)
IC50 (Glutamate NMDA receptor): 1.7 µM

COc1ccc2c(c1)C1(CCCCc3ccccc31)N(C)C2 (centres undefined)
IC50 (Glutamate NMDA receptor): 2.7 µM

CCCN1Cc2ccc(OC)cc2C12CCCCc1ccccc12 (centres undefined)
IC50 (Glutamate NMDA receptor): 17 µM

CN1Cc2ccccc2C12CCc1ccccc12 (centres undefined)
IC50 (Glutamate NMDA receptor): 0.065 µM

CCCN1Cc2ccccc2C12CCCc1ccccc12 (centres undefined)
IC50 (Glutamate NMDA receptor): 1.6 µM

CN1Cc2ccccc2C12CCCc1ccccc12 (centres undefined)
IC50 (Glutamate NMDA receptor): 1.5 µM

CN1Cc2ccc(O)cc2C12CCCc1ccccc12 (centres undefined)
IC50 (Glutamate NMDA receptor): 0.2 µM

CCCN1Cc2ccccc2C12CCc1ccccc12 (centres undefined)
IC50 (Glutamate NMDA receptor): 0.44 µM

COc1cccc2c1CCC21NCc2ccccc21 (centres undefined)
IC50 (Glutamate NMDA receptor): 5 µM

COc1ccc2c(c1)C1(CCCCc3ccccc31)NC2 (centres undefined)
IC50 (Glutamate NMDA receptor): 4.8 µM

CCCN1Cc2ccccc2C12CCCCc1ccccc12 (centres undefined)
IC50 (Glutamate NMDA receptor): 17 µM

c1ccc2c(c1)CCCC21NCc2ccccc21 (centres undefined)
IC50 (Glutamate NMDA receptor): 0.89 µM

Source: ChEMBL document CHEMBL1150554, “Synthesis and activity of spiroisoindolines as novel noncompetitive NMDA antagonists” (Bioorg Med Chem Lett, 1993)
